Reference: patent publication US20260324636A1, “COMPOSITION FOR PROVIDING PLANT WITH STRESS RESISTANCE” (KIRIN HOLDINGS KABUSHIKI KAISHA, priority 2022, published 2026)

Columns and labels:
H1HSP17.6C = H1HSP17.6C gene expression by real-time PCR, Example 7; type: in vivo, hop; details: 1 mM in medium, 20° C. for 2 hours, leaves; read-out: H1HSP17.6C expression level, increase vs control
From the text: In order to design primers for the target genes necessary for gene expression analysis by real-time PCR, homologs of Arabidopsis thaliana high-temperature-responsive genes in hop were searched for. The amino acid sequences of Arabidopsis thaliana HSFA2 (AGI code: AT2G26150) and HSP17.6C (AGI code: AT1G53540) were obtained from TAIR (https://www.arabidopsis.org/), and the nucleotide sequences of the gene homologs were obtained using Hopbase (https://hopbase.cgrb.oregonstate.edu/). […] As the reference gene, the nucleotide sequence of the homolog of Arabidopsis thaliana EF1α (AGI code: AT1G18070) was obtained. The hop homolog genes were designated as H1HSFA2, H1HSP17.6C, and HIEF1α, respectively.
The materials as used in Example 4 were used.
The methods as employed in Example 4 were employed.
The leaves in the first and the second nodes from the apical buds of the tissue-cultured seedlings were sampled 1.5 months after the initiation of subculture and inoculated into a liquid medium consisting of a ½ Murashige and Skoog Plant Salt Mixture and 2 (w/v) % glucose. Specifically, a liquid medium was dispensed at 5 ml/well to a 6-well microplate (IWAKI), and 5 hop leaves were mounted thereon. […]
Thereafter, the relative expression level of the target gene upon N-acetylglutamic acid treatment was calculated by the ΔΔCt method.

HSFA2 = assay: Histone H4 acetylation level of HSFA2 by chromatin immunoprecipitation and quantitative PCR, Example 14; type: in vivo, Arabidopsis thaliana (Col-0); details: Arabidopsis thaliana; 0.4 mM in medium, 2 hours after application; read-out: histone H4 acetylation level of HSFA2, increase vs group not subjected to the treatment
Method: A wild-type Arabidopsis thaliana strain (accession: Col-0) was used as an experimental material. Seeds were purchased from Inplanta Innovations Inc.
A liquid medium containing a ½ Murashige and Skoog Plant Salt Mixture (Nacalai) and 1 (w/v) % sucrose (FUJIFILM Wako) was used as a growth medium.
Arabidopsis thaliana seeds were sterilized with the use of a Kitchen Haiter® liquid (Kao Corporation) diluted to one-half concentration with distilled water for 3 minutes, washed 3 times with sterile distilled water, and then incubated at 4° C. overnight. The growth medium (100 ml) was prepared in a 300-ml flask, the incubated seeds were seeded therein, the flask was transferred to an incubator (TOMY), and shake culture was then initiated. The incubator was maintained at a temperature of 22° C. for a daily cycle of 16 hours light and 8 hours darkness, and the rotation speed of the shaker was set at 180 rpm.
A stock solution of N-acetylglutamic acid (Tokyo Chemical Industry Co., Ltd.) was added to Arabidopsis thaliana 7 days after seeding to the final concentration of 0 mM and 0.4 mM in the media, followed by incubation for 2 hours. Sample fixation following incubation was performed in accordance with Yamaguchi et al (Arabidopsis Book, Feb. 17, 2014; 12: e0170). […]

CC(=O)N[C@@H](CCC(=O)O)C(=O)O [N-acetylglutamic acid]
fold induction at 1000 µM (H1HSP17.6C): 1.8 | fold induction at 400 µM (HSFA2): 2
